The results in this text go back to patent US20080234262A1 (Wyeth, priority 2007, published 2008).

Read-outs that look alike come from different tables or passages of the source.

One test has as its target T1, Human mTOR (FLAG-TOR) (Homo sapiens, UniProt P42345).
T1 construct: FLAG
The experiment in a line: Human mTOR kinase assay with purified enzyme, DELFIA format. The class given is biochemical.

Another test deals with PI3K (Homo sapiens, UniProt P42336). As to the kind of experiment: Fluorescence polarization assay for PI3K.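 Also: PI3K kinase reaction on PIP2 with ATP, 30-60 min, product sensed by GST-GRP with red probe in fluorescence polarization (mP), controls without enzyme and at zero time.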 The format is biochemical. The note with it: PI3Kα, read-out: PI3Kα IC50. In general terms: In fluorescence polarisation assays a small probe gives low polarisation when free and higher when bound to something large.
A further test has as its system prostate line LNCap. As to the kind of experiment: In vitro cell culture growth assay (MTS), LNCap.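 Also: viable cell density read by absorbance at 490 nm, growth expressed as percent of vehicle-treated cells on the same plate.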 The class given is cell-based, human. The note with it: LNCap cells, three days after drug treatment.
For the next test, the system named is breast line MDA468. The experiment in a line: In vitro cell culture growth assay (MTS), MDA468. The format is cell-based, human. The conditions noted are these: Homo sapiens, 72 h, MDA468 cells, three days after drug treatment. The procedure, abridged: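 Growth measured as percent of same-plate vehicle control by MTS metabolic dye conversion (A490). Breast MDA468 and prostate LNCap cells, plated a day ahead, were exposed to compounds for 3 days.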

Sequence of PI3K (P42336 whole entry): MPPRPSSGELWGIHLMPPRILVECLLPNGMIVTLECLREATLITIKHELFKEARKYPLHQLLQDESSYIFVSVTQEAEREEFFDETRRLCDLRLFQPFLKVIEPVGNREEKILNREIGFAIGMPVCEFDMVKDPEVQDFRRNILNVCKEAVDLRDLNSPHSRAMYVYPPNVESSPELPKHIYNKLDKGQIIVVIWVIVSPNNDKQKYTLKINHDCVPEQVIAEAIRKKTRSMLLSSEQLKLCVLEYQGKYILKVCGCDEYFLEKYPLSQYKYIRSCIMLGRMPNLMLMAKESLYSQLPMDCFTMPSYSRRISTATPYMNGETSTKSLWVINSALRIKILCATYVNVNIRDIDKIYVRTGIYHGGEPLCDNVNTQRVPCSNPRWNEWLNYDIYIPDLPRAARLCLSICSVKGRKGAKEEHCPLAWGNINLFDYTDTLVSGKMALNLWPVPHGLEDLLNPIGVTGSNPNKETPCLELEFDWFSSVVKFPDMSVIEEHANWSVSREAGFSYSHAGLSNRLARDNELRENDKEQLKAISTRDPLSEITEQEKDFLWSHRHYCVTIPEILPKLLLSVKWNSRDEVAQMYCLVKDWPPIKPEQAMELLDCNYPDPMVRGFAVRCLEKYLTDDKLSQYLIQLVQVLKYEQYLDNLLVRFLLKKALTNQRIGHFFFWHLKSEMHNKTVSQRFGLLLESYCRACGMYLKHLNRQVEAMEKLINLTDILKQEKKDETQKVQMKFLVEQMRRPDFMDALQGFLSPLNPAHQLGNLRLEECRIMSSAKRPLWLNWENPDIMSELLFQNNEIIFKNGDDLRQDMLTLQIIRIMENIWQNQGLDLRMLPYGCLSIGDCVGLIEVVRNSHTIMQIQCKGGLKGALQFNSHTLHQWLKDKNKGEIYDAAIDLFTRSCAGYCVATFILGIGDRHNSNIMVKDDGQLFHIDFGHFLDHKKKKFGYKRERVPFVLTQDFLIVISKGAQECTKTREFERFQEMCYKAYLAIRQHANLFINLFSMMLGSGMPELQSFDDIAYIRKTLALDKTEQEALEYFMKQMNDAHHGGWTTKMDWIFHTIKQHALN
Sequence of PI3K (P27986 whole entry partner): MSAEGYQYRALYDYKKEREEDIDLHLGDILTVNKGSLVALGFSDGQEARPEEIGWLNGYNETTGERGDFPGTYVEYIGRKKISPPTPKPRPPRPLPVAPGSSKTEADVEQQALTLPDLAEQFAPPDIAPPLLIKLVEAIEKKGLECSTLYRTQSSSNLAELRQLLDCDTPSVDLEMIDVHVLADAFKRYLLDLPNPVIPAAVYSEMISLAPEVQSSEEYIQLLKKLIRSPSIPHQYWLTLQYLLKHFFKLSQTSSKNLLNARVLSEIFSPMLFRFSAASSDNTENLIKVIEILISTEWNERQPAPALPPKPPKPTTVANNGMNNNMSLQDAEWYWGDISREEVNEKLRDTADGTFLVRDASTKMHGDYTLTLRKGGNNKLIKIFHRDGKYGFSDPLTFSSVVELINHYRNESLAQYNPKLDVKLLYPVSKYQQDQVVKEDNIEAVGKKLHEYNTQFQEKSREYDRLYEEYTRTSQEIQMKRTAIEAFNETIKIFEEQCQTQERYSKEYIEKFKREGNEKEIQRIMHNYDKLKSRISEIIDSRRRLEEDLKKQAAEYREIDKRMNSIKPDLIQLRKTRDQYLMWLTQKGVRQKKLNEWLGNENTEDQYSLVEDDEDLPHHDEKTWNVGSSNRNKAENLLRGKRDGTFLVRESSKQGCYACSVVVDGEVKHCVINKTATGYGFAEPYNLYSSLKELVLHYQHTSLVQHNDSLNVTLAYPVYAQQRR

A word on the IC50: it is the concentration that inhibits the measured activity by half. “1-Ethyl-3-(4-{1-[1-(4-hydroxy-butyl)-piperidin-4-yl]-4-morpholin-4-yl-1H-pyrazolo[3,4-d]pyrimidin-6-yl}-phenyl)-urea [Example 52]”: the IC50 was 11.5 nM against Human mTOR (FLAG-TOR) and 1430 nM on PI3K.

Regarding “4-(6-(3-hydroxyphenyl)-1-phenyl-1H-pyrazolo[3,4-d]pyrimidin-4-yl)morpholin-3-one [Example 73]”, the IC50 against Human mTOR (FLAG-TOR) was 380 nM; at PI3K (listed as 74), 8570 nM; at PI3K, 8770 nM.

Regarding “5-[1-(1-Benzyl-piperidin-4-yl)-4-morpholin-4-yl-1H-pyrazolo[3,4-d]pyrimidin-6-yl]-1,3-dihydro-benzoimidazol-2-one [Example 35]”, the results for the half-inhibitory concentration (IC50) at Human mTOR (FLAG-TOR) and at PI3K were 130 nM and 8200 nM, respectively.

With “4-{6-[4-(2,3-Dimethyl-isothioureido)-phenyl]-4-morpholin-4-yl-pyrazolo[3,4-d]pyrimidin-1-yl}-piperidine-1-carboxylic acid isopropyl ester [Example 57]”, the IC50 against Human mTOR (FLAG-TOR) is 118 nM; at PI3K, 1700 nM.

“3-[4-(1,4-oxazepan-4-yl)-1-phenyl-1H-pyrazolo[3,4-d ]pyrimidin-6-yl]phenol [Example 75]”: the IC50 against Human mTOR (FLAG-TOR) was no less than 20000 nM; at PI3K, 10000 nM.

Take “3-(4-Morpholin-4-yl-1-piperidin-4-yl-1H-pyrazolo[3,4-d]pyrimidin-6-yl)-phenol [Example 5]”: the IC50 at Human mTOR (FLAG-TOR) is 240 nM; on PI3K, 440 nM.

With “4-(4-morpholin-4-yl-1-phenyl-1H-pyrazolo[3,4-d]pyrimidin-6-yl)aniline [Example 10]”, at Human mTOR (FLAG-TOR), half-maximal inhibition (IC50) required 215 nM.

“1-(2-Fluoro-ethyl)-3-(4-{1-[1-(4-hydroxy-butyl)-piperidin-4-yl]-4-morpholin-4-yl-1H-pyrazolo[3,4-d]pyrimidin-6-yl}-phenyl)-urea [Example 54]”: the results for the IC50 against Human mTOR (FLAG-TOR) and on PI3K were 29 nM and 1750 nM, respectively.

On to “1-(4-{4-(2-hydroxymorpholin-4-yl)-1-[1-(pyridin-3-ylmethyl)piperidin-4-yl]-1H-pyrazolo[3,4-d]pyrimidin-6-yl}phenyl)-3-methylurea [Example 61]”, for which the IC50 came out at 300 nM at Human mTOR (FLAG-TOR) and 9130 nM at PI3K.

Consider “1-{4-[1-(1-Benzyl-piperidin-4-yl)-4-morpholin-4-yl-1H-pyrazolo[3,4-d]pyrimidin-6-yl]-phenyl}-3-methyl-thiourea [Example 34]”, for which the IC50 against Human mTOR (FLAG-TOR) amounted to 1200 nM; at PI3K, 1110 nM.

Consider `CCNC(=O)Nc1ccc(-c2nc(N3CCOCC3)c3cnn(C4CCN(C(=O)c5ccccc5)CC4)c3n2)cc1` [Compound 626, 1-{4-[1-(1-benzoylpiperidin-4-yl)-4-morpholin-4-yl-1H-pyrazolo[3,4-d]pyrimidin-6-yl]phenyl}-3-ethylurea], for which the IC50 on PI3K was 355 nM; in the test on prostate line LNCap it was less than 27 nM; in the test on breast line MDA468, 38 nM.

As for `CNC(=O)Nc1ccc(-c2nc(N3CCOCC3)c3cnn(C4CCN(C(=O)NC)CC4)c3n2)cc1` [Example 477, N-methyl-4-(6-{4-[(methylcarbamoyl)amino]phenyl}-4-morpholin-4-yl-1H-pyrazolo[3,4-d]pyrimidin-1-yl)piperidine-1-carboxamide], the IC50 on PI3K came to 149 nM; in the test on prostate line LNCap (Homo sapiens, LNCaP, 72 h) it was 2200 nM; in the test on breast line MDA468 it was 1800 nM.

Regarding `CC(C)(C)OC(=O)N1CCC[C@@H](n2ncc3c(N4CCOCC4)nc(-c4ccc5[nH]ccc5c4)nc32)C1` [Compound 167], the IC50 was found to be 890 nM at PI3K; 3000 nM in the test with prostate line LNCap (Homo sapiens, LNCaP, 72 h); 3100 nM in the test on breast line MDA468.

In the case of `Oc1cccc(-c2nc(N3CCOCC3)c3cn[nH]c3n2)c1` [Example 204, 3-(4-morpholin-4-yl-1H-pyrazolo[3,4-d]pyrimidin-6-yl)phenol], the IC50 on PI3K was found to be 26 nM; in the test with prostate line LNCap (Homo sapiens, LNCaP, 72 h), 2500 nM; in the test on breast line MDA468 it was 8000 nM.

As to `O=C(Nc1ccncc1)Nc1ccc(-c2nc(N3CCOCC3)c3cnn(C4CCNCC4)c3n2)cc1` [Compound 780, 1-[4-(4-morpholin-4-yl-1-piperidin-4-yl-1H-pyrazolo[3,4-d]pyrimidin-6-yl)phenyl]-3-pyridin-4-ylurea], the IC50 at PI3K was 16 nM; in the test with prostate line LNCap (Homo sapiens, LNCaP, 72 h) it was 2200 nM; in the test with breast line MDA468, 1500 nM.

On to `CNC(=O)Nc1ccc(-c2nc(N3CCOCC3)c3cnn(C4CCN(Cc5cncc(Br)c5)CC4)c3n2)cc1` [Example 393, 1-[4-(1-{1-[(5-bromopyridin-3-yl)methyl]piperidin-4-yl}-4-morpholin-4-yl-1H-pyrazolo[3,4-d]pyrimidin-6-yl)phenyl]-3-methylurea], for which the IC50 came out at 72 nM at PI3K; 95 nM with prostate line LNCap (Homo sapiens, LNCaP, 72 h); 600 nM in the test on breast line MDA468.

For the compound `CNC(=NC#N)Nc1ccc(-c2nc(N3CCOCC3)c3cnn(C4CCN(C(=O)c5cccnc5)CC4)c3n2)cc1` [Example 412, 2-cyano-1-methyl-3-(4-{4-morpholin-4-yl-1-[1-(pyridin-3-ylcarbonyl)piperidin-4-yl]-1H-pyrazolo[3,4-d]pyrimidin-6-yl}phenyl)guanidine], the IC50 on PI3K came to 382 nM; in the test with prostate line LNCap (Homo sapiens, LNCaP, 72 h) it was 3000 nM; in the test on breast line MDA468, 6000 nM.
